SMILES strings stand for the structures.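 A five-concentration, 48-hour dose response in 96-well plates underlies each endpoint, interpolated linearly between surrounding concentrations. The concentration for full growth arrest is given as TGI.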

Among the test systems are LXFL 529 NSCLC; SNB-78 CNS; RXF-631 renal; HOP-18 NSCLC; DLD-1 colon; DMS 114 small cell lung; KM20L2 colon; MDA-N.
Holding throughout (assay): NCI anticancer screen, dose series, 48 h

`O=c1/c(=C/c2ccccc2[N+](=O)[O-])sc2nc3ccccc3n12`: the TGI in the test with LXFL 529 NSCLC was > 46.4 µM; in the test with SNB-78 CNS, > 46.4 µM; in the test with RXF-631 renal it was > 46.4 µM; in the test on HOP-18 NSCLC it was > 46.4 µM; with DLD-1 colon, 37.3 µM; in the test with DMS 114 small cell lung, 36.8 µM. Also, in the test on KM20L2 colon, the TGI was > 100 µM.

On to `CC1/C=C/[C@@]2(C)CCC(C(C)(C)O)C2C(O)C[C@](C)(O)/C=C/C1` (stereo partly specified), for which the TGI in the test on LXFL 529 NSCLC, in the test on SNB-78 CNS, with HOP-18 NSCLC, in the test with DLD-1 colon, with DMS 114 small cell lung and in the test on KM20L2 colon was > 100 µM in each case.

With `O=C(c1nc2ccc([N+](=O)[O-])cc2[nH]c1=O)C(O)c1ccc2c(c1)OCO2` (stereo unspecified), the TGI with LXFL 529 NSCLC, in the test on MDA-N, in the test on HOP-18 NSCLC, with DLD-1 colon, with DMS 114 small cell lung and in the test on KM20L2 colon was > 100 µM throughout.

In the case of `CCc1ccc(NC(=O)NC(=O)c2ccccc2[N+](=O)[O-])cc1Oc1ncc(Cl)cn1`, the TGI in the test on LXFL 529 NSCLC is > 100 µM; in the test on SNB-78 CNS, > 100 µM; with HOP-18 NSCLC, > 100 µM; in the test on DLD-1 colon, > 100 µM; in the test on DMS 114 small cell lung, > 100 µM; in the test on KM20L2 colon, 0.0481 µM.

As to `C/C=C(/I)CBr`, the TGI in the test with LXFL 529 NSCLC turned out to be 27.6 µM; in the test on SNB-78 CNS it was 93.9 µM; in the test on RXF-631 renal it was 36.2 µM; with DLD-1 colon, 29.2 µM; in the test with DMS 114 small cell lung, 28.4 µM; in the test with KM20L2 colon, 88.5 µM.

For `COc1ccc(C(=O)O[C@H]2[C@@H]3C=CO[C@@H](OC4OC(CO)C(O)C(O)C4O)[C@@H]3[C@@]3(CO)O[C@@H]23)cc1O` (stereo partly specified), the TGI in the test with LXFL 529 NSCLC, in the test on SNB-78 CNS, with RXF-631 renal, in the test with DLD-1 colon, with DMS 114 small cell lung and in the test with KM20L2 colon was > 100 µM throughout.

In the case of `COc1ccc(NC(=O)CC2SC(=Nc3ccccc3C)NC2=O)c([N+](=O)[O-])c1` (stereo unspecified), the TGI in the test with LXFL 529 NSCLC, with SNB-78 CNS, in the test on DLD-1 colon and with KM20L2 colon was > 100 µM throughout.

As for `CC(Oc1ccc2c(-c3ccccc3)cc(=O)oc2c1)C(=O)O` (stereo unspecified), the TGI in the test with LXFL 529 NSCLC, in the test with SNB-78 CNS, in the test on HOP-18 NSCLC, with DLD-1 colon, in the test on DMS 114 small cell lung and in the test with KM20L2 colon was > 100 µM throughout.

For the molecule `CC1=C[C@H]2c3c([nH]c4ccccc34)C(c3c[nH]c4ccccc34)[C@H]2CC1` (stereo partly specified), the TGI worked out at 15.5 µM in the test with LXFL 529 NSCLC; 13.2 µM in the test on SNB-78 CNS; 14.1 µM in the test on RXF-631 renal; 24.1 µM in the test with HOP-18 NSCLC; 19.1 µM in the test with DLD-1 colon; 20.5 µM with DMS 114 small cell lung.

Take `NC1=C(NC(=O)Cc2ccccc2F)C(=O)c2ccccc2C1=O`: the TGI is > 100 µM with HOP-18 NSCLC, 52.9 µM in the test with DLD-1 colon, > 100 µM in the test with DMS 114 small cell lung and > 100 µM with KM20L2 colon.

`CCOC(=O)C(=O)Nc1ccccc1C`: the TGI in the test on LXFL 529 NSCLC, in the test with SNB-78 CNS, in the test with RXF-631 renal, with DLD-1 colon, in the test on DMS 114 small cell lung and with KM20L2 colon was > 100 µM each time.

For `C#Cc1cccc(N2C(=O)c3c(c(-c4ccccc4)c(-c4ccc(Cc5ccc(-c6c(-c7ccccc7)c7c(c(-c8ccccc8)c6-c6ccccc6)C(=O)N(c6cccc(C#C)c6)C7=O)cc5)cc4)c(-c4ccccc4)c3-c3ccccc3)C2=O)c1`, the TGI in the test on LXFL 529 NSCLC, in the test with SNB-78 CNS, with DLD-1 colon, in the test with DMS 114 small cell lung and in the test with KM20L2 colon was > 100 µM in each case.

As to `CCOC(=O)C1=C(Nc2ccc(Cl)cc2Cl)OCC1=O`, the TGI in the test on LXFL 529 NSCLC, in the test on SNB-78 CNS, in the test with RXF-631 renal, in the test with DLD-1 colon and in the test with KM20L2 colon was > 100 µM in each case.

Regarding `CCC(=O)c1c(NOC2OCC(OC(C)=O)C(OC(C)=O)C2OC(C)=O)nc(OC)n(C)c1=O` (stereo unspecified), the TGI with LXFL 529 NSCLC, in the test with SNB-78 CNS, in the test with DLD-1 colon, with DMS 114 small cell lung and in the test on KM20L2 colon was > 100 µM in each case.

As to `CCCNC(=O)C1C(=O)C(=O)N(CCC)C1=O` (stereo unspecified), the TGI in the test on LXFL 529 NSCLC, in the test on SNB-78 CNS, in the test on HOP-18 NSCLC, in the test on DLD-1 colon, in the test on DMS 114 small cell lung and with KM20L2 colon was > 100 µM throughout.

On to `C=CCNc1nc2c(s1)C(=O)c1ccccc1C2=O`, for which the TGI in the test on LXFL 529 NSCLC stood at 24.2 µM; with SNB-78 CNS it was 72.9 µM; with MDA-N it was 3.28 µM; in the test with HOP-18 NSCLC, 23.1 µM; in the test with DMS 114 small cell lung it was 3.27 µM; in the test on KM20L2 colon it was 33.5 µM.

Consider `NCCSSCCN`, for which the TGI with LXFL 529 NSCLC, in the test with SNB-78 CNS, with MDA-N, in the test on RXF-631 renal, in the test with HOP-18 NSCLC and in the test on DLD-1 colon was > 100 µM each time. The TGI in the test on DMS 114 small cell lung and with KM20L2 colon was > 100 µM throughout.

In the test with MDA-N, `COc1ccc(C2OC(=O)c3ccc4ccccc4c32)c(C)c1` (stereo unspecified) returned a TGI of 4.28 µM.

With `COc1ccc(NC(=O)/C(=C/c2ccccc2)C(C)=O)cc1`, the TGI was 24.9 µM in the test on LXFL 529 NSCLC; 44.8 µM with SNB-78 CNS; 31.2 µM in the test with RXF-631 renal; 28.2 µM in the test with HOP-18 NSCLC; 28.7 µM in the test on DLD-1 colon; 30.7 µM in the test on DMS 114 small cell lung. Also, the TGI with KM20L2 colon came out at 29.2 µM.

These data come from PubChem BioAssay (NCI).
